Measured values published in ChEMBL document CHEMBL3856204, “Chiral 6-aryl-furo[2,3-d]pyrimidin-4-amines as EGFR inhibitors” (Eur J Med Chem, 2016).
pIC50: −log10 of the molar value.

Target: Epidermal growth factor receptor (Homo sapiens, UniProt P00533)
Assay: Inhibition of recombinant human GST-tagged EGFR cytoplasmic domain (668 to 1210 residues) expressed in baculovirus by Z'-LYTE assay

Sequence of Epidermal growth factor receptor (P00533 whole entry, the tested form may be a part): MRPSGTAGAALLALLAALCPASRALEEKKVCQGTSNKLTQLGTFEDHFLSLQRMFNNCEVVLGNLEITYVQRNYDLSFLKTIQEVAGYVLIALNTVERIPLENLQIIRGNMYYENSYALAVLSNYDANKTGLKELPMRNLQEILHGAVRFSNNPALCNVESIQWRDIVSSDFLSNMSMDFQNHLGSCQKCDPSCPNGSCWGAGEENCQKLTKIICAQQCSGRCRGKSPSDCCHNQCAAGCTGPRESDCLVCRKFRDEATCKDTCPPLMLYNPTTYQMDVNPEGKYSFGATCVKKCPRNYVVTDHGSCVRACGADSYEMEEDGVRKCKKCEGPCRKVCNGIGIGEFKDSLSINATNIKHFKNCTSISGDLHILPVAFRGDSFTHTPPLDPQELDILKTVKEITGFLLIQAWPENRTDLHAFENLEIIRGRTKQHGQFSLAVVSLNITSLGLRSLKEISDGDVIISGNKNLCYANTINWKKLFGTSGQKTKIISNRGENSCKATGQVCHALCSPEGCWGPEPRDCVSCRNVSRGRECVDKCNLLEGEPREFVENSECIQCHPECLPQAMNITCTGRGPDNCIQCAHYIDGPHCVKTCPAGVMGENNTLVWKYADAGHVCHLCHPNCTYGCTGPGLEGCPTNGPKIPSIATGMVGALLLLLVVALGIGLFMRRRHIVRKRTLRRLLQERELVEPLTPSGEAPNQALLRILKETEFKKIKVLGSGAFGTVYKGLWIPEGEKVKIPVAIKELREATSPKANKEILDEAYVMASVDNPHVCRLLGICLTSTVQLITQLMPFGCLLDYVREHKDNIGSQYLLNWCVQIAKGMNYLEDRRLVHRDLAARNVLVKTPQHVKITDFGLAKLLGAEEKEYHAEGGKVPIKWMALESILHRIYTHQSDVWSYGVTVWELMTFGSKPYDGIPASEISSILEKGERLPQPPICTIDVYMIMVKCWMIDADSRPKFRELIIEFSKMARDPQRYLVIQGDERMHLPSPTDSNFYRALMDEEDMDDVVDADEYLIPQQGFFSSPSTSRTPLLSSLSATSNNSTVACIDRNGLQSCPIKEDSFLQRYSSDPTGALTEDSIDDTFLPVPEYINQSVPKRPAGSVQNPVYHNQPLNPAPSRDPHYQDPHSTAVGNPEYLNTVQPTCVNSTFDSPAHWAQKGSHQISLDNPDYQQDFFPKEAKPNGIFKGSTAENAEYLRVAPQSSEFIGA

Row | SMILES | pIC50
1 | COc1ccc(-c2cc3c(NCc4ccccc4)ncnc3o2)cc1 | 7.13
2 | COc1ccc(-c2cc3c(N[C@H](C)c4ccc(F)cc4)ncnc3o2)cc1 | 7.57
3 | C[C@@H](Nc1ncnc2oc(-c3cccc(O)c3)cc12)c1ccccc1 | 8.34
4 | C[C@@H](Nc1ncnc2oc(-c3ccc(NCCN4CCOCC4)cc3)cc12)c1ccccc1 | 8.96
5 | CC[C@@H](Nc1ncnc2oc(-c3ccc(OC)cc3)cc12)c1ccccc1 | 7.66
6 | C[C@@H](Nc1ncnc2oc(-c3ccc(F)cc3)cc12)c1ccccc1 | 7.89
7 | COc1ccc(-c2cc3c(N[C@@H](C)c4ccccc4)ncnc3o2)cc1 | < 6.00
8 | C[C@@H](Nc1ncnc2oc(-c3ccc(O)cc3)cc12)c1ccccc1 | 8.82
9 | COc1cccc(-c2cc3c(N[C@H](C)c4ccccc4)ncnc3o2)c1 | 8.15
10 | C=Cc1ccc(-c2cc3c(N[C@H](C)c4ccccc4)ncnc3o2)cc1 | 7.54
11 | COc1ccc(-c2cc3c(N[C@@H](C)CO)ncnc3o2)cc1 | < 7.00
12 | C[C@@H](Nc1ncnc2oc(-c3ccc(C#N)cc3)cc12)c1ccccc1 | 7.36
13 | COc1ccc(-c2cc3c(NC(CC(N)=O)c4ccccc4)ncnc3o2)cc1 (racemic) | 7.66
14 | COc1ccc(-c2cc3c(N[C@H](C)C4CCCCC4)ncnc3o2)cc1 | < 7.00
15 | c1ccc(CNc2ncnc3oc(-c4ccccc4)cc23)cc1 | 7.03
16 | C[C@@H](Nc1ncnc2oc(-c3ccccc3)cc12)c1ccccc1 | 7.96
17 | COc1ccccc1-c1cc2c(N[C@H](C)c3ccccc3)ncnc2o1 | 8.40
18 | COC[C@@H](Nc1ncnc2oc(-c3ccccc3)cc12)c1ccccc1 | 7.55
19 | C[C@@H](Nc1ncnc2oc(-c3ccc(Br)cc3)cc12)c1ccccc1 | 7.25
20 | COc1ccc(-c2cc3c(N[C@H](C)c4ccccc4)ncnc3o2)cc1 | 8.28
21 | COc1ccc(-c2cc3c(N[C@H](C)c4ccccc4F)ncnc3o2)cc1 | 7.62
22 | COc1ccc(-c2cc3c(N[C@H](C)c4cccc(F)c4)ncnc3o2)cc1 | 7.62
23 | COc1ccc(-c2cc3c(N[C@H](CCO)c4ccccc4)ncnc3o2)cc1 | 8.40
